Series [1] concerns L1210 murine leukaemia cells. Description: In vitro cytotoxicity against L1210 cells. Conditions: Mus musculus. It counts as cell-based. How it is done:
In vitro cytotoxicity studies
Cells were seeded routinely every 72 hours at 10^4 cells.ml^-1 and counted as 10^6 cells.ml^-1 prior to each experiment and counts were performed following incubation (5% CO2 in air at full humidity) for 72 hours at 37° C., with the appropriate concentration of drug.

For series [2], the system named is M5076 reticulum cell sarcoma. It counts as in vivo. Particulars: for Death: mouse, in vivo.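 On all read-outs here: mice bearing tumor implanted intramuscularly on day 1, given compound intraperitoneally once a day for 17 days in arachis oil containing 10% DMSO.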
Description: Tumor: implanted intramuscularly on day 1
Drug: in 10% DMSO/arachis oil administered daily for
17 days by intraperitoneal route.
*Test/Control assessed at day 24
Series [3] relates to P388 lymphocytic leukaemia. Description: In vivo antitumor screening against P388 lymphocytic leukaemia in mice. Conditions: Mus musculus, P388, ip, free base, intraperitoneal, NCI protocols, read-out: Optimum T/C; for response vs control in vivo at 100 mg/kg: optimum dose 100 mg/kg; for response vs control in vivo at 240 mg/kg: optimum dose 240 mg/kg; for response vs control in vivo at 200 mg/kg: optimum dose 200 mg/kg.
Description: ^a All compounds administered to mice as free bases via
intraperitoneal route according to NCI protocols.

The target in the next series is T1, rat liver DHFR (Rattus norvegicus, UniProt Q920D2).
T1 construct: from tissue; host or cells: liver of male Wistar rats; homogenate supernatant, pH 5.1 step, dialysed, partially purified
T1 sequence (Q920D2 1-187): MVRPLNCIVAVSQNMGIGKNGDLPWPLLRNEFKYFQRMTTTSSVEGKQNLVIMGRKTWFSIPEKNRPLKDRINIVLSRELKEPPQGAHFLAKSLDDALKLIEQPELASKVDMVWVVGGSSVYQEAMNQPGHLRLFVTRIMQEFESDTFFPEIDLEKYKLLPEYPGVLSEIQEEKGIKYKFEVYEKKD
Description: Inhibition of rat liver DHFR (spectrophotometric assay; I50 and Ki). It counts as biochemical. The method, then:
All solutions were prepared on the day previous to the experiment and stored in the dark at 4° C. prior to use.
The stock solutions were diluted, as necessary, immediately before use to produce the required inhibitor concentration.
B.1 Preparation of partially purified DHFR
All further manipulations were performed at 4° C.: the livers (30.7 g) were transferred to a Waring blender to which approximately 8 volumes of water was added (final volume c.a. 300 ml), whereupon the mixture was homogenised for 2 minutes for periods of 30s, allowing 30s between each run to minimise heating. Liver homogenate was centrifuged at approximately 20,000 g for 20 minutes and the pellet was discarded. The supernatant liquid was adjusted to pH 5.1 with dilute acetic acid (1.0 M initially and 0.1 M finally) and after centrifugation at 27,000 g for a further 20 minutes, the clear wine-red solution was transferred to visking tubing (2.5 cm diameter) and dialysed for 12 hours against 0.01 sodium acetate buffer solution. The dialysate was examined and if turbid, centrifuged again at 27,000 g for 20 minutes. The clear preparation was transferred to sterile plastic stoppered tubes (10 ml) and stored at -10° C. prior to use.
B.2. Preparation of reagent solutions
The buffer was kept at 4° C. to prevent bacterial growth and discarded after 3 days.
The solution was maintained at 0° C.
An aqueous solution of NADPH (2 mg.ml^-1, 2.0 mM) was prepared immediately prior to use and again maintained at 0° C.
B.3 Assay for inhibitor activity
Plastic disposable cuvettes were used throughout.
The assay was carried out as follows: NADPH (0.1 ml) and the enzyme preparation (0.1 ml) were incubated at 30° C. for 5 minutes in phosphate buffer (total volume 1.9 ml).
Reference cuvettes were set up containing NADPH, buffer, inhibitor if appropriate and dihydrofolate, but without enzyme (Table A).
Enzyme activity was estimated from the slope of the change of absorbance with time and this was arbitrarily designated as 100% for the uninhibited enzyme.
The remaining inhibitors were selected for I50 determinations and inhibitory activity was evaluated in duplicate at a minimum of four inhibitor concentrations, from which the I50 value was determined by a graphical method.
Compounds selected for inhibition constant (KI) determinations were assayed following an identical method to that described above except that inhibitory activity was measured at a minimum of ten inhibitor concentrations, again in duplicate, from which the appropriate KI values were determined by a Zone B analysis.

[4] abbreviates: Table IV, 72 hours, read-out: IC50 (L1210 cells).
Where [5] appears, read: 0.75 mg/kg/day, Test/Control assessed at day 24, i.p.
[6] abbreviates: 3.125 mg/kg/day, Test/Control assessed at day 24, i.p.
Where [7] appears, read: 6.25 mg/kg/day, Test/Control assessed at day 24, i.p.
Where [8] appears, read: 12.5 mg/kg/day, Test/Control assessed at day 24, i.p.
The mark [9] stands for this setting: Table I, solvent B = 0.1 M hydrochloric acid, read-out: I50, inhibition of rat liver DHFR.
Setting [10] is: Table II, rat liver DHFR, 95% confidence limits, read-out: Ki.
Setting [11] is: Table IV, read-out: I50, rat liver dihydrofolate reductase.
The mark [12] stands for this setting: Table III, drug concentration necessary to reduce the 72 hour cell count to 50% of control, read-out: IC50, cytotoxicity against L1210 cells in vitro.

The structures appear in SMILES notation. Where two headings read alike, the source gives them in different places. Some results are limits rather than exact numbers.

As to `CCc1nc(N)nc(N)c1-c1ccc(N(C)Cc2ccc(OC)cc2)c([N+](=O)[O-])c1` [Compound 17, 2,4-Diamino-6-ethyl-5-{4-[N-(4-methoxybenzyl)-N-methylamino]-3-nitrophenyl}pyrimidine], the IC50 in series [1] (setting [4]) amounted to 70 nM.
For `CCc1nc(N)nc(N)c1-c1ccc(N(C)Cc2ccc(C(=O)NC)cc2)c([N+](=O)[O-])c1` [Compound 19, 2,4-Diamino-6-ethyl-5-(4-{N-[4-(N-methylcarbamoyl)benzyl]-N-methylamino}-3-nitrophenyl)pyrimidine], the “T/C × 100” value in series [2] (setting [5]) was found to be 67; in series [2] (setting [6]), 41; in series [2] (setting [7]) it was 30; in series [2] (setting [8]), 15. The same compound came in with a Tumor volume in series [2] (ip, 12.5 mg/kg) of 443 mm^3. Moreover, in series [1] (setting [4]), the IC50 is 25 nM.
Take `CCc1nc(N)nc(N)c1-c1ccc(OC)c([N+](=O)[O-])c1` [OMe]: the response vs control in vivo at 120 mg/kg in series [3] (optimum dose 120 mg/kg) came to 189%. On rat liver DHFR (setting [9]), the IC50 is 180 nM.
Take `CCCCOc1ccc(-c2c(N)nc(N)nc2CC)cc1[N+](=O)[O-]` [OBu^n]: the IC50 at rat liver DHFR (Table I, solvent A = water, tested as ethanesulphonate salt, read-out: I50, inhibition of rat liver DHFR) is 60 nM. The Ki – broadly, a dissociation constant, usually derived from enzyme kinetics or from competition with a known ligand – on rat liver DHFR (setting [10]) came out at 0.08 ± 0.06 nM.
Regarding `CCc1nc(N)nc(N)c1-c1ccc(NCc2ccc(Cl)c(Cl)c2)c([N+](=O)[O-])c1` [Compound 23, 2,4-Diamino-5-[4-(3,4-dichlorobenzylamino)-3-nitrophenyl]-6-ethylpyrimidine], the “T/C × 100” value in series [2] (ip, 3.125 mg/kg, 576 h) is given as 48; in series [2] (ip, 6.25 mg/kg, 576 h), 36; in series [2] (ip, 12.5 mg/kg, 576 h), 16; in series [2] (ip, 25 mg/kg, 576 h), under 8; in series [2] (ip, 50 mg/kg, 576 h), under 8.
With `CCOCCOC(=O)c1ccc(CN(C)c2ccc(-c3c(N)nc(N)nc3CC)cc2[N+](=O)[O-])cc1` [Compound 16], the IC50 in series [1] (setting [4]) was determined as 40 nM; on rat liver DHFR (setting [11]), 1.5 nM.
For `CCc1nc(N)nc(N)c1-c1ccc(NC)c([N+](=O)[O-])c1` [Compound 1, 2,4-Diamino-5-(4-methylamino-3-nitrophenyl)-6-ethylpyrimidine], in series [3], the response vs control in vivo at 100 mg/kg was 182%.
In the case of `CCc1nc(N)nc(N)c1-c1ccc(NCc2ccc(C(F)(F)F)cc2)c([N+](=O)[O-])c1` [Compound 28, 2,4-diamino-5-[3-nitro-4-(4-trifluoromethylbenzylamino)phenyl]-6-ethylpyrimidine], the “T/C × 100” value is on record as 40 in series [2] (ip, 3.125 mg/kg, 576 h); 20 in series [2] (ip, 6.25 mg/kg, 576 h); 12 in series [2] (ip, 12.5 mg/kg, 576 h); under 8 in series [2] (ip, 25 mg/kg, 576 h). Further, the Tumor volume in series [2] (ip, 6.25 mg/kg) turned out to be 454 mm^3; in series [2] (ip, 12.5 mg/kg), 265 mm^3. For the same compound, in series [2], the “Death” value is reported as “Dead”.
On to `CCc1nc(N)nc(N)c1-c1ccc(N(C)Cc2ccccc2)c([N+](=O)[O-])c1` [Compound 6, 2,4-Diamino-6-ethyl-5-(4-N-methylbenzylamino-3-nitrophenyl)pyrimidine], for which the response vs control in vivo at 480 mg/kg in series [3] (optimum dose 480 mg/kg) is 205%.
As for `CCc1nc(N)nc(N)c1-c1ccc(NC(C)c2ccccc2)c([N+](=O)[O-])c1` (racemic) [Compound 9, 2,4-diamino-6-ethyl-5-(4-(±)-α-methylbenzylamino-3-nitrophenyl)-pyrimidine], the response vs control in vivo at 30 mg/kg in series [3] (optimum dose 30 mg/kg) stood at 132%.
For the compound `CCOc1ccc(-c2c(N)nc(N)nc2CC)cc1[N+](=O)[O-]` [OEt], the IC50 on rat liver DHFR (setting [9]) was 140 nM.
On to `CCc1nc(N)nc(N)c1-c1ccc(NCc2ccccc2)c([N+](=O)[O-])c1` [Compound 5, 2,4-Diamino-5-(4-benzylamino-3-nitrophenyl)-6-ethylpyrimidine], for which the response vs control in vivo at 240 mg/kg in series [3] worked out at 126%. For the same compound, in series [1] (setting [12]), the IC50 was under 1 nM.
`Cc1nc(N)nc(N)c1-c1ccc(Cl)c(Cl)c1` [metoprine, reference compound]: the response vs control in vivo at 50 mg/kg in series [3] (optimum dose 50 mg/kg) was 140%.
Regarding `CCCCNc1ccc(-c2c(N)nc(N)nc2CC)cc1[N+](=O)[O-]` [Compound 4, 2,4-Diamino-5-(4-n-butylamino-3-nitrophenyl)-6-ethylpyrimidine], the response vs control in vivo at 240 mg/kg in series [3] is 206%. Also, the IC50 in series [1] (setting [12]) amounted to 200 nM. For the same compound, on rat liver DHFR (Table II, rat liver DHFR, 95% confidence limits, tested as ethanesulphonate salt, read-out: Ki), the Ki was found to be 0.19 ± 0.05 nM.
For `CCc1nc(N)nc(N)c1-c1ccc(N(C)C)c([N+](=O)[O-])c1` [Compound 3, 2,4-Diamino-5-(4-dimethylamino-3-nitrophenyl)-6-ethylpyrimidine], the response vs control in vivo at 100 mg/kg in series [3] came out at 145%.
For `CCc1nc(N)nc(N)c1-c1ccc(NCc2ccc(OC)cc2)c([N+](=O)[O-])c1` [Compound 18, 2,4-Diamino-6-ethyl-5-{4-[N-(4-methoxybenzyl)amino]-3-nitrophenyl}pyrimidine], the IC50 in series [1] (setting [4]) came to 50 nM; on rat liver DHFR (setting [11]), 21 nM. Moreover, the Ki at rat liver DHFR (Table IV, read-out: Ki, rat liver dihydrofolate reductase) was 0.088 nM.
In the case of `CCc1nc(N)nc(N)c1-c1ccc(N(CC)Cc2ccccc2)c([N+](=O)[O-])c1` [Compound 7, 2,4-Diamino-6-ethyl-5-(4-N-ethylbenzylamino-3-nitrophenyl)pyrimidine], the response vs control in vivo at 200 mg/kg in series [3] is 144%. At rat liver DHFR (setting [10]), the Ki is 0.04 ± 0.03 nM.
In the case of `CCc1nc(N)nc(N)c1-c1ccc(N(C)Cc2ccc(C(=O)OC)cc2)c([N+](=O)[O-])c1` [Compound 15, 2,4-Diamino-6-ethyl-5-{4-[N-(4-methoxycarbonylbenzyl)-N-methylamino]-3-nitrophenyl}pyrimidine], in series [1] (setting [4]), the IC50 was determined as 100 nM.
As to `CCc1nc(N)nc(N)c1-c1ccc(NCc2ccc(C)cc2)c([N+](=O)[O-])c1` [Compound 25, 2,4-Diamino-5-[4-(4-methylbenzylamino)-3-nitrophenyl]-6-ethylpyrimidine], the “T/C × 100” value in series [2] (ip, 3.125 mg/kg, 576 h) was determined as 76; in series [2] (ip, 6.25 mg/kg, 576 h) it was 44; in series [2] (ip, 12.5 mg/kg, 576 h), 24; in series [2] (ip, 25 mg/kg, 576 h), 20. For the same compound, the “Death” value in series [2] is reported as “Dead”.
On to `CCc1nc(N)nc(N)c1-c1ccc(N(C)Cc2ccc(C(=O)O)cc2)c([N+](=O)[O-])c1.O` [Compound 20, 2,4-Diamino-6-ethyl-5-{4-[N-(4-carboxybenzyl)-N-methylamino]-3-nitrophenyl}pyrimidine monohydrate], for which the “T/C × 100” value is recorded as 100 in series [2] (setting [5]), 107 in series [2] (setting [6]), 89 in series [2] (setting [7]) and 100 in series [2] (setting [8]). Besides, the IC50 in series [1] (setting [4]) is 15 nM.
For the compound `CCc1nc(N)nc(N)c1-c1ccc(NCCc2ccccc2)c([N+](=O)[O-])c1` [Compound 10, 2,4-Diamino-6-ethyl-5-(3-nitro-4-phenethylaminophenyl)-pyrimidine], the response vs control in vivo at 200 mg/kg in series [3] is 142%.

Values taken from patent US4992444A, “Antifolate agents” (priority 1986, dated 1991).
